Key:
[1] = system: SKMEL31 melanoma cell line; assay: Soft agar growth of SKMEL31 cell line; assay type: cell-based; settings: SKMEL31, added to MRx0029
Method: (§1) A mixture of 25 μL prewarmed (37° C.) 2× appropriate growth medium (EMEM for melanoma cell lines; DMEM high glucose for HT29) containing 20% FBS, 4 mM L-Glu, 2×NEAA, 0.6% sodium bicarbonate, 200 U/mL penicillin/streptomycin (Invitrogen), and 25 μL prewarmed (47° C.) 1.2% Noble Agar (A5431; Sigma Aldrich) were plated onto each well of a 96-well microplate to serve as a prelayer for the assay. Ten microliters of cell suspensions containing 0-2×10^3 cells were mixed with 25 μL 2× growth media and 35 μL 0.8% Noble Agar in a 96-well round-bottom polypropylene microplate and transferred to the 96-well microplate containing the solidified prelayers. […] They left to grow in the humidified 37° C. incubator with 5% CO2 for 1-2 weeks before soft agar growth was scored using the CytoSelect 96 well cell transformation assay (CBA-130; Cell Biolabs) according to the manufacturer's protocol. Cell growth was measured using a Tecan Infinite F200 Pro Series Multi-Well Plate Reader (Tecan Biosystems), with excitation at 485 nm and emission at 530 nm. […]
(§2) The effects of the following treatments were assessed on the SKMEL31 melanoma cell line (heterozygous for BRAF V600E): (1) MRx0029; (2) Vemurafenib (VEMU) in YFCA+ medium; (3) VEMU and MRx0029; (4) Azacytidine-C (Aza-c) in YFCA+ medium; (5) Aza-c and MRx0029; (6) VEMU, Aza-c and MRx0029.

[2] = system: SKMEL31 melanoma cell line; assay: Clonogenic survival of SKMEL31 cell line; assay type: cell-based; settings: SKMEL31, added to MRx0029
Method: (§3) Cells were trypsinized and 200 cells/well were seeded in 12-well plates. After 48 h cells were treated with the appropriate drugs in absence (YCFA+) or presence of 10% bacterial supernatant and were re-fed every three days. On day 21 after seeding, cells were fixed in ice-cold methanol and stained with Crystal Violet blue. […] were counted and survival fraction was calculated as number of colonies divided by the number of plated cells (plating efficiency) of treated divided by the plating efficiency of control.
as §2

451Lu melanoma cell line = assay: Soft agar growth of 451Lu cell line; assay type: cell-based; settings: added to MRx0029
Method: as §1
The effects of the following treatments were assessed on the 451Lu melanoma cell line (V600E oncogenic mutation in BRAF): (1) MRx0029; (2) Vemurafenib (VEMU) in YFCA+ medium; (3) VEMU and MRx0029; (4) Azacytidine-C (Aza-c) in YFCA+ medium; (5) Aza-c and MRx0029; (6) VEMU, Aza-c and MRx0029.

[3] = system: HT29 colorectal cancer cell line; assay: Clonogenic survival of HT29 cell line; assay type: cell-based; settings: HT29, added to MRx0029
Method: as §3
The effects of the following treatments were assessed on the HT29 colorectal cancer cell line (V600E oncogenic mutation in BRAF): (1) MRx0029; (2) Vemurafenib (VEMU) in YFCA+ medium; (3) VEMU and MRx0029; (4) Azacytidine-C (Aza-c) in YCFA+ medium; (5) Aza-c and MRx0029; (6) VEMU, Aza-c and MRx0029.

IL-8 [4] = assay: IL-8 secretion by differentiated HT29-mtx cells; assay type: cell-based; settings: 24 h, vs untreated and YCFA+-treated cells
Description: The ability of MRx0029 to cause any intestinal barrier dysfunction was investigated. HT29-mtx epithelial, mucin-producing cell monolayers were used as an in vitro model to evaluate gut barrier disruption and immune stimulation following treatment with MRx0029.

IL-8 [5] = assay: IL-8 secretion in U373 cells treated with SCFAs or supernatant fractions (ELISA); assay type: cell-based, Human; settings: U373 cells pre-treated 1 h with 1 μg/ml LPS, increasing concentrations
Method: Human glioblastoma astrocytoma cell line (U373), were maintained in 25 ml MEME 4.5 g/L D-glucose supplemented with 10% heat-inactivated FBS, 4 mM L-Glutamine, 100 U/ml penicillin, 100 μg/ml streptomycin and 5 μg/ml plasmocin, 1% Non-Essential Amino Acids, 1% Sodium Pyruvate (referred to as full growth media).
U373 cells were prepared as described above. Cells were pre-treated for 1 h with 1 μg/ml LPS indicated above and incubated at 37° C. and 5% CO2. After 1 h pre-incubation, cells were removed from CO2 incubator and treated with increasing concentration of fresh prepared Sodium Butyrate (SB), Sodium Valerate (SV) and Hexanoic Acid (HA).
U373 cells were prepared as described above. Cells were pre-treated for 1 h with 1 μg/ml LPS as indicated above. Afterwards, cells were removed from CO2 incubator and treated with 100 μl of the different fractions. Fractions from media were used as controls. Cell-free supernatants were collected 24 h after treatment and analysed by ELISA for IL-8 secretion (as outlined above).

HDAC [6] = assay: HDAC inhibition on whole HT-29 cells; assay type: cell-based
Method: (§4) Pure cultures of bacteria were grown anaerobically in YCFA+ broth until they reached their stationary growth phase. Cultures were centrifuged at 5,000×g for 5 minutes and the cell-free supernatant (CFS) was filtered using a […] (Millipore, UK). 1 mL aliquots of the CFS were stored at −80° C. until use. Sodium butyrate, hexanoic and valeric acid were obtained from Sigma Aldrich (UK) and suspensions were prepared in YCFA+ broth.
(§5) To investigate which metabolites were responsible for the strain-induced HDAC inhibition, different concentrations of hexanoic acid, valeric acid and sodium butyrate were measured for their HDAC inhibition on whole HT-29 cells and on HT-29 cell lysate.

HDAC [7] = assay: HDAC inhibition on HT-29 cell lysate; assay type: biochemical
Method: as §4, §5

| SMILES | LPS-induced secretion of IL-8 (IL-8 [5]) | HDAC inhibition on whole HT-29 cells (HDAC [6]) | HDAC inhibition on HT-29 cell lysate (HDAC [7]) | also measured |
| --- | --- | --- | --- | --- |
| Nc1ncn([C@@H]2O[C@H](CO)[C@@H](O)[C@H]2O)c(=O)n1 [Aza-c, Azacytidine-C] |  |  |  | effect on soft agar growth inhibition by MRx0029 [1]: improved; effect on clonogenic survival inhibition by MRx0029 [2]: improved; effect on soft agar growth inhibition by MRx0029 (451Lu melanoma cell line): enhanced soft agar growth inhibition by MRx0029; effect on inhibition of clonogenic survival by MRx0029 [3]: improved the effects of MRx0029 in inhibiting clonogenic survival |
| CCCCCCCCCCCCCC(=O)O[C@@H]1[C@@H](C)[C@@]2(O)[C@@H](C=C(CO)C[C@]3(O)C(=O)C(C)=C[C@@H]23)[C@@H]2C(C)(C)[C@]12OC(C)=O [PMA, phorbol 12-myristate-13-acetate, reference compound] |  |  |  | secretion of IL-8 (IL-8 [4]): secreted a significant amount of IL-8 |
| CCCCC(=O)[O-].[Na+] [SV, sodium valerate] | increased LPS-induced secretion of IL-8 |  |  |  |
| CCCCCC(=O)O [hexanoic acid] | did not inhibit IL-8 secretion | did not show significant inhibitory activity | did not show significant inhibitory activity |  |
| CCCC(=O)[O-].[Na+] [sodium butyrate] | increased LPS-induced secretion of IL-8 | significant (P<0.05) inhibition of HDAC activity | significant (P<0.05) inhibition of HDAC activity |  |
| CCCCC(=O)O [valeric acid] |  | inhibited HDAC activity | inhibited HDAC activity |  |

Reference: patent US11419902B2, “Compositions comprising bacterial strains” (4D Pharma Research Limited, priority 2018, dated 2022)
